Reference: the supplement of paper PMC13380429
± gives the standard deviation of the averaged measurements.

Legend:
Conditions in all cases: 72 h
[1] = system: Caco-2; assay: relative viability EC50 (midpoint between 100% and the lowest measured viability); higher = less toxic
[2] = system: HepG2; assay: as above
[3] = system: Vero E6; assay: as above
[4] = system: U2OS; assay: as above
[5] = system: Calu-3; assay: as above
[6] = system: Caco-2; assay: drug sensitivity score (DSS) for viability; higher = more toxic; extreme values may be limits of the assay
[7] = system: HepG2; assay: as above
[8] = system: Vero E6; assay: as above
[9] = system: U2OS; assay: as above
[10] = system: Calu-3; assay: as above
[11] = system: Caco-2; assay: cell viability relative to DMSO; higher = less toxic
[12] = system: HepG2; assay: as above
[13] = system: Vero E6; assay: as above
[14] = system: U2OS; assay: as above
[15] = system: Calu-3; assay: as above

Structure (SMILES) | relative viability EC50 [1] | relative viability EC50 [2] | relative viability EC50 [3] | relative viability EC50 [4] | relative viability EC50 [5] | drug sensitivity score [6] | drug sensitivity score [7] | drug sensitivity score [8] | drug sensitivity score [9] | drug sensitivity score [10] | cell viability ([11]; 1 nM) | cell viability ([11]; 10 nM) | cell viability ([11]; 100 nM) | cell viability ([11]; 1000 nM) | cell viability ([11]; 10000 nM) | cell viability ([12]; 1 nM) | cell viability ([12]; 10 nM) | cell viability ([12]; 100 nM) | cell viability ([12]; 1000 nM) | cell viability ([12]; 10000 nM) | cell viability ([13]; 1 nM) | cell viability ([13]; 10 nM) | cell viability ([13]; 100 nM) | cell viability ([13]; 1000 nM) | cell viability ([13]; 10000 nM) | cell viability ([14]; 1 nM) | cell viability ([14]; 10 nM) | cell viability ([14]; 100 nM) | cell viability ([14]; 1000 nM) | cell viability ([14]; 10000 nM) | cell viability ([15]; 1 nM) | cell viability ([15]; 10 nM) | cell viability ([15]; 100 nM) | cell viability ([15]; 1000 nM) | cell viability ([15]; 10000 nM)
CC[N+](CC)(CC(=O)Nc1c(C)cccc1C)Cc1ccccc1 [denatonium-benzoate] | > 10 µM | > 10 µM | > 10 µM | > 10 µM | > 10 µM | 0 | 0 | 0 | 0 | 0 | 100% | 102% | 99.8% | 110% | 112% | 100% | 99.3% | 108% | 100% | 116% | 95.1% | 99.2% | 95.3% | 88.9% | 111% | 91% | 96.1% | 95.9% | 103% | 104% | 96.7% | 101% | 98.3% | 92.8% | 105%
CC/C(=C(/CC)c1ccc(O)cc1)c1ccc(O)cc1 [diethylstilbestrol] | > 10 µM | > 10 µM | > 10 µM | > 10 µM | > 10 µM | 0.3 | 0 | 0 | 0 | 0 | 97.7% | 87.3% | 107% | 106% | 81.5% | 111% | 98.8% | 103% | 98.8% | 106% | 95.1% | 99.8% | 91.2% | 98.3% | 107% | 98.6% | 94% | 99.5% | 94.3% | 96.8% | 106% | 96.7% | 114% | 103% | 109%
N[C@@H](C(=O)O)c1cc(O)cc(O)c1 [dihydroxyphenylglycine] | > 10 µM | > 10 µM | > 10 µM | > 10 µM | > 10 µM | 0 | 0 | 0 | 0 | 0 | 102 ± 3.8% | 94.9 ± 1.1% | 92.4 ± 7.5% | 90.8 ± 4.5% | 103 ± 5% | 95.8 ± 10% | 92 ± 9.4% | 87.9 ± 4.8% | 98.2 ± 2.4% | 102 ± 8.4% | 99.4 ± 5.7% | 97.5 ± 7% | 98.5 ± 1.9% | 99.6 ± 5.4% | 95.8 ± 4.7% | 102.7 ± 0.85% | 97.2 ± 2.8% | 103% | 98.8 ± 0.42% | 101 ± 2% | 104 ± 5.4% | 90.5 ± 9.7% | 102 ± 1.1% | 102 ± 6.4% | 105 ± 9.4%
c1ccc2c(c1)[I+]c1ccccc1-2 [diphenyleneiodonium] | 0.251 µM | 0.0322 µM | 0.137 µM | 0.16 µM | 0.308 µM | 10.8 | 29.3 | 15.8 | 16 | 8.6 | 92.9% | 97.3% | 72.3% | 61.9% | 37% | 110% | 87.7% | 14.9% | 8.2% | 2.4% | 94.9% | 95% | 65.9% | 38.9% | 25.1% | 95.4% | 95.1% | 64.8% | 39.3% | 20.7% | 92.6% | 94.5% | 78.8% | 69.1% | 44.9%
CCOC(=O)[C@H](CCc1ccccc1)N[C@@H](C)C(=O)N1CCC[C@H]1C(=O)O [enalapril] | > 10 µM | > 10 µM | > 10 µM | > 10 µM | > 10 µM | 0 | 0 | 0 | 0 | 0 | 92.4% | 97.1% | 84.1% | 102% | 100% | 103% | 95.4% | 98.4% | 109% | 109% | 97.2% | 99.3% | 98.2% | 100% | 107% | 97.9% | 101% | 99.5% | 98.6% | 102% | 90.5% | 98.3% | 92.2% | 101% | 91.9%
C[C@]12CC[C@@H]3c4ccc(OC(=O)N(CCCl)CCCl)cc4CC[C@H]3[C@@H]1CC[C@@H]2OP(=O)(O)O [estramustine-phosphate] | > 10 µM | > 10 µM | > 10 µM | > 10 µM | > 10 µM | 0 | 0 | 0 | 0 | 0 | 115% | 89.9% | 92.2% | 94.3% | 94.9% | 98.3% | 90.8% | 101% | 95.4% | 104% | 95.1% | 103% | 94.9% | 107% | 92.8% | 102% | 100% | 98.7% | 97.3% | 99.1% | 99% | 105% | 90.2% | 99.9% | 116%
CCOc1ccccc1C(N)=O [ethenzamide] | > 10 µM | > 10 µM | > 10 µM | > 10 µM | > 10 µM | 0 | 0 | 0 | 0 | 0 | 100% | 97% | 97.6% | 98.9% | 103% | 101% | 94.9% | 95.4% | 102% | 91.2% | 104% | 98.1% | 101% | 92.6% | 97.3% | 106% | 97.9% | 100% | 98.2% | 100% | 95.3% | 101% | 99.5% | 98.1% | 103%
